Laboratory results as given in patent US5854276A, “Substance WF16616, process for production thereof, and use thereof” (Fujisawa Pharmaceutical Co., Ltd., priority 1995, dated 1998).
Values after ≈ are worked out from the molar mass of the structure shown.

How the values were obtained:
[1] = test system: Aspergillus fumigatus FD050; experiment: Antifungal activity, microbroth dilution in YNBD medium, Aspergillus fumigatus FD050; assay type: cell-based; conditions: 1×10^4 cfu/100 μl/well, 37° C., 22 hours, 0.5% glucose-containing YNBD, microscopical observation
Experimental: (§1) The antifungal activity of WF16616 substnace was measured in a 0.5% glucose-containing yeast nitrogen base (YNBD) medium by a microbroth dilution analysis method using a 96-well microtiter plate. This substance was dissolved in methanol, and was diluted to twice in sequence in the microtiter plate using the YNBD medium. The test microorganism was inoculated at a concentration of 1×10^4 cfu/100 μl/well. Candida albicans and Aspergillus fumigatus were incubated in the above-mentioned plate at 37° C. for 22 hours, and Cryptococcus neoformans at 30° C. for 48 hours, respectively. Then, MIC was measured through microscopical observation.

[2] = test system: Candida albicans FP633; experiment: Antifungal activity, microbroth dilution in YNBD medium, Candida albicans FP633; assay type: cell-based; conditions: 1×10^4 cfu/100 μl/well, 37° C., 22 hours, 0.5% glucose-containing YNBD, microscopical observation
Experimental: as §1

[3] = test system: ICR female mice; experiment: Toxicity test, intraperitoneal injection in mice; assay type: in vivo; conditions: 5 mg/kg intraperitoneally once a day for three days
Experimental: WF16616 substance was intraperitoneally injected into each of five 5-week-old ICR female mice at a dose of 5 mg/kg once a day for three days.

[4] = test system: Cryptococcus neoformans YC203; experiment: Antifungal activity, microbroth dilution in YNBD medium, Cryptococcus neoformans YC203; assay type: cell-based; conditions: 1×10^4 cfu/100 μl/well, 30° C., 48 hours, 0.5% glucose-containing YNBD, microscopical observation
Experimental: as §1

[5] = test system: Candida albicans No. 7; experiment: Antifungal activity, microbroth dilution in YNBD medium, Candida albicans No. 7; assay type: cell-based; conditions: 1×10^4 cfu/100 μl/well, 37° C., 22 hours, 0.5% glucose-containing YNBD, microscopical observation
Experimental: as §1

CCC(C)CC(C)CCCCCCCCC(=O)NC1CC(O)C(O)NC(=O)C2C(O)C(C)CN2C(=O)C(C(O)CC(N)=O)NC(=O)C(C(O)C(O)c2ccc(O)c(OS(=O)(=O)O)c2)NC(=O)C2CC(O)CN2C(=O)C(C(C)O)NC1=O (stereo not drawn) [WF16616 substance]
MIC [1]: 0.16 µg/mL (≈ 0.136 µM) | MIC [2]: 0.1 µg/mL (≈ 0.0851 µM) | dead mice ([3]; five 5-week-old ICR female mice): none of the mice were dead | increase in the weight of mice ([3]; versus unadministered mice): quite the same as that in the weight of unadministered mice | MIC [4]: > 50 µg/mL | MIC [5]: 0.78 µg/mL (≈ 0.664 µM)
